Source: US5723494A, “Derivatives of glutamic and aspartic acids, a method of preparing them, and their use as drugs for enhancing memory and learning” (priority 1993, dated 1998)

Key:
[1] = Memory-enhancement activity in the passive avoidance test in the rat; type: in vivo, rat (male Wistar); conditions: rat; for change in vivo at 0.1 mg/kg / change in vivo at 1 mg/kg / change in vivo at 10 mg/kg: 96 h, 6 treatments, read-out: % variation vs controls (FS) in step through latency; for change in vivo at 0.1 mg/kg: 0.1 mg/kg IP; for change in vivo at 0.1 mg/kg / change in vivo at 1 mg/kg / change in vivo at 10 mg/kg / Activity in increasing the avoidance time (in words): retest on the 4th day; for change in vivo at 1 mg/kg: 1 mg/kg IP; for change in vivo at 10 mg/kg: 10 mg/kg IP
Protocol: 2) Memory-enhancement activity in the "passive avoidance" test in the rat
A "passive avoidance" model was used, which required a single "step-through" situation and a retest of the "retention memory" 72 h after the training.
Male Wistar rats which weighed about 200 g and had not fasted, were used. The test consisted of evaluating the degree of memory of an animal after it had been trained as follows.
The equipment used was a shuttle box modified thus: one compartment was lined with black card including the cover, and a 60 W lamp was disposed above the other, spaced from the grid floor by about 40 cm. The two compartments were divided by an automatic guillotine-like door. Each animal was placed in the compartment in the light with the guillotine-likedoor open. From this moment, the time taken by the rat to go into the compartment lined with black card (the dark compartment) (the step-throughlatency=STL) was measured. The animals which took more than 30 sec to go into the dark were discarded. Once they had gone into the dark, the door was lowered automatically and a=0.1 mA shock lasting 5 sec (a foot shock=FS) started. After 10 sec, the animal was removed from the shuttle box.
Upon completion, the animals were selected randomly in homogeneous groups and treated with the products.
The retest to determine memory was made after 72 hours. The products were administered chronically in the preselected manner twice per day and the last treatment 30 min before the retest (6 treatments altogether).
The memory-retention test (the retest) consisted of placing each animal, treated 30 min beforehand with a physiological solution or with the product, in the compartment which was not lined with black card for 30 sec.
The results are expressed as the percentage variation of the STL (in seconds) of the groups treated in comparison with the control group by means of this formula: [formula]

[2] = target: excitor amino-acid receptors of cortical membranes ("forebrain") of rats; assay: Inhibition of the specific binding of [3H]-glutamate to rat forebrain membranes; conditions: for IC50: rat forebrain membranes, 20 min, 37° C., pH 7.1
Excerpt: 6) Studies on binding to rat "forebrain" membranes
L-glutamate recognizes all three receptor subtypes indicated above, al though not selectively. It is therefore desirable to evaluate the capacity of each of the compounds of the invention to interact with the excitor amino-acid receptors of the CNS.
"Forebrain", that is, the cerebral cortex and the hippocampus, were selected as the receptor tissue and ^3 H-L-glutamate as the ligand for marking this heterogenous receptor population.
Rat cerebral tissue (forebrain without striated tissue) was therefore homogeneised cold in tris buffer at pH 7.4. After washing and centrifuging, the final pellet was resuspended in 50 volumes of tris HCl binding buffer at 7.1. 0.5 ml of receptor membrane thus obtained were then incubated, together with the radioactive tracer and the compounds under test, for 20 min at 37° C. The reaction was terminated by separating the bound radio-ligand from the free radio-ligand by filteration on glass-fibre filters which, after washing, were counted in a liquid scintillator (a β-counter) thus determining the radioactivity associated with the pellet. The specific binding was determined as the difference between the binding in the absence and in the presence of cold 3.6 mM L-glutamate.

[3] = Antidepressant activity in the behavioural despair test in the mouse; type: in vivo, mouse (male CD1); conditions: for inhibition in vivo at 3 mg/kg: 3 mg/kg IP; for inhibition in vivo at 10 mg/kg: 10 mg/kg IP; for inhibition in vivo at 30 mg/kg: 30 mg/kg IP
Excerpt: 5) Antidepressant activity in the "behavioural despair test" Another interesting aspect of the pharmacological activity of these products is the potent antidepressant activity which some of them display in an experimental model in the mouse, in which a state of depression is induced experimentally by the method of Porsolt et al. (Arch. Int. Pharmacodyn. 229, p. 327-336 (1977)). Male CDl mice which weighed about 20-25 g and had not fasted were used. The test consisted of inducing a state of depression in the animal which was subjected to forced swimming in a glass cylinder from which it could not escape. After a short period of vigorous activity the mouse adopted a characteristic posture of immobility which was easily identifiable; this immobility is reduced by antidepressant drugs. 1 l glass beakers, filled to 700 ml with water at a temperature of 25° C. were used for the test. The mice, 8 per group, were treated intraperitoneally with the drug under test, 30 minutes before the test. At time 0, each animal was immersed in a beaker and, after one minute during which all moved about swimming vigorously in order to escape, regardless of treatment, the observer, who was unaware of the treatment, assigned the following points: 0=animal immobile 1=minimum movement to remain afloat 2=vigorous swimming The greater the antidepressant activity of the drug, the more the animals will move about in order to try to escape from the water. The points were assigned every 15 sec for a total period of 5 min with a total of 20 observations. The antidepressant activity was determined with the use of various doses of the compound by the regression method as the ED50, that is, the dose in mg/kg of the compound which could antagonise the animal's immobility time by 50%.

[4] = Antiamnesic activity in the mouse (step-down passive avoidance, amnesia induced by ECS); type: in vivo, mouse (CD1 male); conditions: mouse; for Antiamnesic activity (in words) / ED50: OS; for change in vivo at 10 mg/kg: 10 mg/kg OS; for change in vivo at 3 mg/kg: 3 mg/kg OS; for change in vivo at 30 mg/kg: 30 mg/kg OS; for ED50: 60 min before training, read-out: ID50 (antiamnesic activity, dose inhibiting the amnesic effect of the ECS by 50%)
Excerpt: 1) Antiamnesic activity in the mouse (step-down passive avoidance)
An electroconvulsive shock (ECS) produces retrograde amnesia in the test animal if applied immediately after the training received, for example, a harmful stimulus of a suitable intensity.
The object of the experiment was to study the effects of the compounds of the invention in antagonizing the amnesic effect of an ECS on the short-term memory consolidation process.
CD1 male mice which weighed about 30-35 g, and had not fasted were used. The equipment used was a rectangular plexiglass cage (21×21×40cm) with an electrifiable grid floor and a wooden cube (4×4×4 cm) fixed in the centre of the cage. The animals were treated orally with the product under test 60 minutes before the training.
The mouse was placed delicately on the wooden cube and the time it took to descend to the grid floor (SDL=step-down latency) was measured. When all four of the animal's paws were resting on the floor the continuous 0.2 mA shock started and the time taken by The mouse to remount the wooden cube (EL=escape latency) was measured.
The animals with an SDL of between 3 and 30 sec and with an EL of between 3 and 60 sec were used for retesting.
Immediately afterwards, a transcorneal ECS was applied with the use of the following parameters: amperage 15 mA, frequency 50 Hz, duration of the train of pulses 0.4 sec. duration of each individual pulse 1 msec., interval between pulses 20 msec. As well as the groups treated with ECS, a control group without ECS and a control group with ECS were used.
The retest was carried out after 24 h.
The results are expressed as the percentage variation of the SDL of the treated groups in comparison with the control group by means of this formula: [formula]

[5] = 5 min, 5 minutes, read-out: Decrease in immobility (as %) vs the controls
[6] = po, retest 24 h after training, read-out: Reversal of the amnesia (% vs controls), as the increase in the Step Down Latency

Row | Compound | change in vivo at 0.1 mg/kg [1] [%] | change in vivo at 1 mg/kg [1] [%] | change in vivo at 10 mg/kg [1] [%] | Activity in increasing the avoidance time (in words) ([1]; IP) | IC50 [2] [µM] | inhibition in vivo at 3 mg/kg [3, 5] [%] | inhibition in vivo at 10 mg/kg [3, 5] [%] | inhibition in vivo at 30 mg/kg [3, 5] [%] | ED50 (dose antagonising immobility time by 50%) ([3]; IP) | Antiamnesic activity (in words) [4] | change in vivo at 10 mg/kg [4, 6] [%] | change in vivo at 3 mg/kg [4, 6] [%] | change in vivo at 30 mg/kg [4, 6] [%] | ED50 ([4]; po) [mg/kg] | further results
1 | N[C@H](CCC(=O)O)C(=O)NCCC12CC3CC(CC(C3)C1)C2 [Compound 17] | 0 | 0 | 0 | inactive | 312 | 7 | 12 | 0 | Inactive | completely inactive | 10 |  |  |  | Antidepressant activity (in words) ([3]; IP): inactive; change in vivo at 0.1 mg/kg ([4]; po, 0.1 mg/kg OS, retest 24 h after training, read-out: Reversal of the amnesia (% vs controls), as the increase in the Step Down Latency): 0%; change in vivo at 1 mg/kg ([4]; po, 1 mg/kg OS, retest 24 h after training, read-out: Reversal of the amnesia (% vs controls), as the increase in the Step Down Latency): 14%
2 | N[C@@H](CCC(=O)O)C(=O)NC1CCCCCC1 [Compound 20] | 7 | 20 | 36 | considerable activity in increasing the avoidance time | 14.4 | 0 | 11 | 52 |  |  | 41 | 15 | 61 | 17.3 | ED30 ([1]; IP, read-out: ED30 (dose increasing the latency time (STL) by 30%)): 4.2 mg/kg; Activity in inhibiting the binding of glutamate (in words) ([2]; rat cortical membranes): considerable activity in inhibiting the binding of the glutamate; ED50 ([3]; IP, read-out: ED50 (dose antagonising immobility time by 50%)): 36.1 mg/kg
3 | N[C@@H](CCC(=O)O)C(=O)N1CCC2(CCCC2)CC1 [Compound 30] |  |  |  |  | 368 | 0 | 25 | 20 | Not Calculable |  |  |  |  |  | 
4 | N[C@@H](CCC(=O)NCCC12CC3CC(CC(C3)C1)C2)C(=O)O [Compound 45] | 0 | 0 | 12 |  | 61.2 |  |  |  |  | less active | 20 | 3 | 55 | 28.9 | 
5 | CC1(C)CCC(NC(=O)CC[C@H](N)C(=O)O)CC1 [Compound 48, 1-(4,4-dimethylcyclohexyl)-L-glutamine] | 6 | 0 | 18 |  | 70.7 | 9 | 18 | 38 | Not Calculable |  |  |  |  |  | inhibition in vivo at 1 mg/kg ([3]; 5 min, 1 mg/kg IP, 5 minutes, read-out: Decrease in immobility (as %) vs the controls): 0%
